Experimental data taken from patent US20250011303A1, “SMALL MOLECULE MODULATORS OF IL-17A, METHODS OF MAKING AND METHODS OF USING THEREOF” (ASCLETIS BIOSCIENCE CO., LTD, priority 2023, published 2025).

Columns and labels:
[1] = system: HEK-Blue IL-17 cells with rhIL-17A/A; test: HEK-Blue IL-17 cell assay (SEAP reporter, rhIL-17A/A stimulation); format: cell-based, human; settings: Homo sapiens, HEK-Blue, 20 h, 20 hours incubation, absorbance at 405 nm, read-out: IC50 in HEK-Bule cell Assay
Method: • 1. The test Compounds were 3-fold serial diluted from 10 mM for 10 doses in DMSO. • 2. Prepare Reference Compounds (IL-17A-Inhibitor-1) were 3-fold serial diluted from 1 mM for 10 doses in DMSO. • 3. Prepare 1000× Positive control (1 mM IL-17A-Inhibitor-1) and 1000× vehicle control (100% DMSO).
• a) Cells were cultured as the HEK-Blue™ IL-17 technical data sheet recommended. HEK-Blue IL-17 cells were assayed in the exponential growth phase. • b) Aspirate growth medium and rinse cells twice with PBS to remove phenol red. • c) Resuspend cells in test medium to a proper concentration. • d) Only cells with viability greater than 90% were used for assays. • e) Transfer 25 nl of compound dilutions into 384-well assay plates using Echo655; • f) Seed 25 ul of HEK-Blue IL-17 cells at 8,000 cells/well into 384-well plate with rhIL-17A/A. • g) Cells were incubated for 20 hours at 37° C. under 5% CO2 atmosphere. • h) Transfer 2 ul of cells supernatant into per well of 384-well assay plates. • i) Add 20 ul of PNPP substrate. • j) Measure the Absorbance at 405 nm on Envision 2105 plate reader.
RLU signal (LUMcmpd) is calculated for each well.
% Inhibition is calculated as follow: […]
Signalave_pc: The average signal for the positive controls across the plate.
Signalave_vc: The average signal for negative controls across the plate.
Calculate IC50 and Plot effect-dose curve of cmpds:
Calculate IC50 by fitting % Inhibition values and log of compound concentrations to nonlinear regression (dose response−variable slope) with Graphpad 8.0.

[2] = Pharmacokinetics after oral gavage in fasted SD rats; format: in vivo; settings: PO 10 mg per kilogram, plasma; for AUC: 0.25-24 hours; for bioavailability: rat, 10 mg per kilogram body weight
Method: Compounds of the present application were formulated in 40% PEG400/10% solutol/2% Tween 80/48% saline (v/v/v/v), and administered via oral gavage (PO) at the dosages of 10 mg per kilogram body weight in fasted SD rats. Plasma samples were collected at 0.25, 0.5, 1, 2, 4, 8, and 24 hours post dosing. Compound concentration was determined by LC-MS and pharmacokinetics parameters were calculated by WinNonlin 8.2 using Non-Compartmental Analysis model.

AUC [2] | SMILES | IC50 [1] | bioavailability [2]
7840 ng · h/m | CC(C)n1nccc1C(=O)N[C@H](C(=O)Nc1ccc2c(c1)OC1(CCC(F)(F)CC1)CC2C(=O)N1CC(F)(F)C1)C1CCCCCC1 (stereo partly shown) [Compound 225] | 44.9 nM | 57.6%
6093 ng · h/m | CC(C)n1nccc1C(=O)N[C@H](C(=O)Nc1cc2c(cc1F)[C@H](C(=O)N1CC(F)(F)C1)C[C@H](C1CC(F)(F)C1)O2)[C@H]1CC[C@H](C)CC1 [Compound 248] | 24.4 nM | 70.7%
– | CC(C)n1nccc1C(=O)N[C@H](C(=O)Nc1ccc2c(c1)OC(C1CC(F)(F)C1)CC2C(=O)N1CC(C(F)(F)F)C1)C1CCCCCC1 (stereo partly shown) [Compound 231] | 116 nM | –
– | CC(C)n1nccc1C(=O)N[C@H](C(=O)Nc1cc2c(cc1F)C(C(=O)N1CC(F)(F)C1)CC1(CCOCC1)O2)C1CCCCCC1 (stereo partly shown) [Compound 236] | 14.9 nM | –
– | CC(C)n1nccc1C(=O)N[C@H](C(=O)Nc1ccc2c(c1)O[C@@H](C1CC(F)(F)C1)C[C@H]2C(=O)N1CC(F)(F)C1)C1CCC(F)(F)CC1 [Compound 240] | 48.3 nM | –
– | CC(C)n1nccc1C(=O)N[C@H](C(=O)Nc1ccc2c(c1)OCCC2C(=O)N1CC(F)(F)C1)C1CCCCCC1 (stereo partly shown) [Compound 197] | 287 nM | –
– | CC(C)n1nccc1C(=O)N[C@H](C(=O)Nc1ccc2c(c1)OCC[C@H]2C(=O)N1CC(F)(F)C(F)(F)C1)C1CCCCCC1 [Compound 36] | 154 nM | –
– | CC(C)C1CC(C(=O)N2CC(F)(F)C2)c2cc(F)c(NC(=O)[C@@H](NC(=O)c3ccnn3C(C)C)C3CCCCCC3)cc2O1 (stereo partly shown) [Compound 230] | 242 nM | –
– | CC(C)[C@H]1C[C@H](C(=O)N2CC(F)(F)C(F)(F)C2)c2ccc(NC(=O)[C@@H](NC(=O)c3ccnn3C(C)C)C3CCCCCC3)cc2O1 [Compound 218] | 222 nM | –
– | CC(C)n1nccc1C(=O)N[C@H](C(=O)Nc1ccc2c(c1)O[C@@H](C1CC(F)(F)C1)C[C@H]2C(=O)N1CC(F)(F)C1)C1CCCCCC1 [Compound 135] | 18.9 nM | –
– | CC(C)n1nccc1C(=O)N[C@H](C(=O)Nc1ccc2c(c1)OC(C1CCCCC1)CC2C(=O)N1CC(F)(F)C1)C1CCCCCC1 (stereo partly shown) [Compound 212] | 213 nM | –
– | CC(C)CC1CC(C(=O)N2CC(F)(F)C2)c2ccc(NC(=O)[C@@H](NC(=O)c3ccnn3C(C)C)C3CCCCCC3)cc2O1 (stereo partly shown) [Compound 220] | 181 nM | –
9703 ng · h/m | CC(C)[C@H]1C[C@@H](C(=O)N2CC(F)(F)C2)c2ccc(NC(=O)[C@@H](NC(=O)c3ccnn3C(C)C)C(C3CC3)C3CC3)cc2O1 [Compound 161] | 43.3 nM | 63.5%
– | CC(C)n1nccc1C(=O)N[C@H](C(=O)Nc1ccc2c(c1)OC(C)(C)CC2C(=O)N1CC(F)(F)C1)C1CCCCCC1 (stereo partly shown) [Compound 200] | 200 nM | –
– | CC(C)n1nccc1C(=O)N[C@H](C(=O)Nc1ccc2c(c1)O[C@@H](C1CC(F)(F)C1)C[C@H]2C(=O)N1CC(F)(F)C1)C(C1CC1)C1CC1 [Compound 160] | 42.1 nM | –
– | Cc1nonc1C(=O)N[C@H](C(=O)Nc1ccc2c(c1)OC(C(C)C)CC2C(=O)N1CC(F)(F)C1)C1CCCCCC1 (stereo partly shown) [Compound 214] | 335 nM | –
18980 ng · h/m | CC(C)[C@H]1C[C@@H](C(=O)N2CC(F)(F)C2)c2ccc(NC(=O)[C@@H](NC(=O)c3ccnn3C(C)C)C3CCCCCC3)cc2O1 [Compound 204] | 46.6 nM | 34.8%
